{
  "source": "patent US6479435B1",
  "about": "“Diaryl ethers and processes for their preparation and herbicidal and desiccant compositions containing them” (ISK Americas Incorporated, priority 1997, dated 2002)",
  "format_in_all_cases": "in vivo",
  "key": {"[1]": {"test_system": "Johnsongrass (Sorghum halepense, SORHA)", "test": "Pre-emerge greenhouse herbicide test, phytotoxicity rating", "conditions": "14 days after application, rating scale 0-100", "in_short": "(§1)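 Visual 0–100 injury rating (100 = all plants dead) taken 14 days after treatment. Rates of 125–1000 g ai/ha in acetone, 187 l/ha, were sprayed onto soil one day post-sowing; pots were surface-watered to incorporate, then bottom-watered.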"}, "[2]": {"test_system": "barnyardgrass (Echinochloa crusgalli, ECHCG)", "test": "Pre-emerge greenhouse herbicide test, phytotoxicity rating", "conditions": "14 days after application, rating scale 0-100", "in_short": "as §1"}, "[3]": {"test_system": "common ragweed (Ambrosia artemisiifolia L., AMBEL)", "test": "Pre-emerge greenhouse herbicide test, phytotoxicity rating", "conditions": "14 days after application, rating scale 0-100", "in_short": "as §1"}, "[4]": {"test_system": "green foxtail (Setaria viridis, SETVI)", "test": "Pre-emerge greenhouse herbicide test, phytotoxicity rating", "conditions": "14 days after application, rating scale 0-100", "in_short": "as §1"}, "[5]": {"test_system": "ivyleaf morningglory (Ipomoea hederacea, IPOHE)", "test": "Pre-emerge greenhouse herbicide test, phytotoxicity rating", "conditions": "14 days after application, rating scale 0-100", "in_short": "as §1"}, "[6]": {"test_system": "lambsquarters (Chenopodium album, CHEAL)", "test": "Pre-emerge greenhouse herbicide test, phytotoxicity rating", "conditions": "14 days after application, rating scale 0-100", "in_short": "as §1"}, "[7]": {"test_system": "large crabgrass (Digitaria sanguinalis, DIGSA)", "test": "Pre-emerge greenhouse herbicide test, phytotoxicity rating", "conditions": "14 days after application, rating scale 0-100", "in_short": "as §1"}, "[8]": {"test_system": "redroot pigweed (Amaranthus retroflexus, AMARE)", "test": "Pre-emerge greenhouse herbicide test, phytotoxicity rating", "conditions": "14 days after application, rating scale 0-100", "in_short": "as §1"}, "[9]": {"test_system": "sicklepod (Cassia obtusifolia, CASOB)", "test": "Pre-emerge greenhouse herbicide test, phytotoxicity rating", "conditions": "14 days after application, rating scale 0-100", "in_short": "as §1"}, "[10]": {"test_system": "velvetleaf (Abutilon theophrasti, ABUTH)", "test": "Pre-emerge greenhouse herbicide test, phytotoxicity rating", "conditions": "14 days after application, rating scale 0-100", "in_short": "as §1"}, "[11]": {"test_system": "field corn (Zea mays L., var. Dekalb 535, CORN)", "test": "Pre-emerge greenhouse test, crop damage rating", "conditions": "14 days after application, rating scale 0-100", "in_short": "as §1"}, "[12]": {"test_system": "upland rice (Oryza sp., var.Tebonnet, RICE)", "test": "Pre-emerge greenhouse test, crop damage rating", "conditions": "14 days after application, rating scale 0-100", "in_short": "as §1"}, "[13]": {"test_system": "soybean (Glycine max L., var. Pella 86, SOY)", "test": "Pre-emerge greenhouse test, crop damage rating", "conditions": "14 days after application, rating scale 0-100", "in_short": "as §1"}, "[14]": {"test_system": "common ragweed (Ambrosia artemisiifolia L., AMBEL)", "test": "Post-emerge greenhouse herbicide test, phytotoxicity rating", "conditions": "14 days after application", "in_short": "(§2)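 Scores use a 0 (no damage) to 100 (complete kill) scale, taken 14 days after a foliar spray. Acetone solutions with 0.25% v/v non-ionic surfactant were applied by track sprayer at 187 l/ha and 63-1000 g ai/ha to bottom-watered 2-3 leaf plants.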"}, "[15]": {"test_system": "Johnsongrass (Sorghum halepense, SORHA)", "test": "Post-emerge greenhouse herbicide test, phytotoxicity rating", "conditions": "14 days after application", "in_short": "as §2"}, "[16]": {"test_system": "barnyardgrass (Echinochloa crusgalli, ECHCG)", "test": "Post-emerge greenhouse herbicide test, phytotoxicity rating", "conditions": "14 days after application", "in_short": "as §2"}, "[17]": {"test_system": "green foxtail (Setaria viridis, SETVI)", "test": "Post-emerge greenhouse herbicide test, phytotoxicity rating", "conditions": "14 days after application", "in_short": "as §2"}, "[18]": {"test_system": "ivyleaf morningglory (Ipomoea hederacea, IPOHE)", "test": "Post-emerge greenhouse herbicide test, phytotoxicity rating", "conditions": "14 days after application", "in_short": "as §2"}, "[19]": {"test_system": "lambsquarters (Chenopodium album, CHEAL)", "test": "Post-emerge greenhouse herbicide test, phytotoxicity rating", "conditions": "14 days after application", "in_short": "as §2"}, "[20]": {"test_system": "large crabgrass (Digitaria sanguinalis, DIGSA)", "test": "Post-emerge greenhouse herbicide test, phytotoxicity rating", "conditions": "14 days after application", "in_short": "as §2"}, "[21]": {"test_system": "redroot pigweed (Amaranthus retroflexus, AMARE)", "test": "Post-emerge greenhouse herbicide test, phytotoxicity rating", "conditions": "14 days after application", "in_short": "as §2"}, "[22]": {"test_system": "sicklepod (Cassia obtusifolia, CASOB)", "test": "Post-emerge greenhouse herbicide test, phytotoxicity rating", "conditions": "14 days after application", "in_short": "as §2"}, "[23]": {"test_system": "velvetleaf (Abutilon theophrasti, ABUTH)", "test": "Post-emerge greenhouse herbicide test, phytotoxicity rating", "conditions": "14 days after application", "in_short": "as §2"}, "[24]": {"test_system": "field corn (Zea mays L., var. Dekalb 535, CORN)", "test": "Post-emerge greenhouse test, crop damage rating", "conditions": "14 days after application", "in_short": "as §2"}, "[25]": {"test_system": "upland rice (Oryza sp., var.Tebonnet, RICE)", "test": "Post-emerge greenhouse test, crop damage rating", "conditions": "14 days after application", "in_short": "as §2"}, "[26]": {"test_system": "soybean (Glycine max L., var. Pella 86, SOY)", "test": "Post-emerge greenhouse test, crop damage rating", "conditions": "14 days after application", "in_short": "as §2"}},
  "data": [
    {"molecule": "O=c1n(CCCF)nnn1-c1cc(Oc2ncc(Br)cn2)c(Cl)cc1F", "note": "[Compound 6-16]", "values": [
      {"measurement": "phytotoxicity rating SORHA", "setting": "[1]; 125 g ai/ha", "result": 40},
      {"measurement": "phytotoxicity rating SORHA", "setting": "[1]; 500 g ai/ha", "result": 80},
      {"measurement": "phytotoxicity rating ECHCG", "setting": "[2]; 125 g ai/ha", "result": 0},
      {"measurement": "phytotoxicity rating ECHCG", "setting": "[2]; 500 g ai/ha", "result": 90},
      {"measurement": "phytotoxicity rating AMBEL", "setting": "[3]; 125 g ai/ha", "result": 0},
      {"measurement": "phytotoxicity rating AMBEL", "setting": "[3]; 500 g ai/ha", "result": 70},
      {"measurement": "phytotoxicity rating SETVI", "setting": "[4]; 125 g ai/ha", "result": 80},
      {"measurement": "phytotoxicity rating SETVI", "setting": "[4]; 500 g ai/ha", "result": 100},
      {"measurement": "phytotoxicity rating IPOHE", "setting": "[5]; 125 g ai/ha", "result": 50},
      {"measurement": "phytotoxicity rating IPOHE", "setting": "[5]; 500 g ai/ha", "result": 30},
      {"measurement": "phytotoxicity rating CHEAL", "setting": "[6]; 125 g ai/ha", "result": 100},
      {"measurement": "phytotoxicity rating CHEAL", "setting": "[6]; 500 g ai/ha", "result": 100},
      {"measurement": "phytotoxicity rating DIGSA", "setting": "[7]; 125 g ai/ha", "result": 80},
      {"measurement": "phytotoxicity rating DIGSA", "setting": "[7]; 500 g ai/ha", "result": 100},
      {"measurement": "phytotoxicity rating AMARE", "setting": "[8]; 125 g ai/ha", "result": 100},
      {"measurement": "phytotoxicity rating AMARE", "setting": "[8]; 500 g ai/ha", "result": 100},
      {"measurement": "phytotoxicity rating CASOB", "setting": "[9]; 125 g ai/ha", "result": 50},
      {"measurement": "phytotoxicity rating CASOB", "setting": "[9]; 500 g ai/ha", "result": 30},
      {"measurement": "phytotoxicity rating ABUTH", "setting": "[10]; 125 g ai/ha", "result": 100},
      {"measurement": "phytotoxicity rating ABUTH", "setting": "[10]; 500 g ai/ha", "result": 100},
      {"measurement": "crop damage rating CORN", "setting": "[11]; 125 g ai/ha", "result": 0},
      {"measurement": "crop damage rating CORN", "setting": "[11]; 500 g ai/ha", "result": 15},
      {"measurement": "crop damage rating RICE", "setting": "[12]; 125 g ai/ha", "result": 0},
      {"measurement": "crop damage rating RICE", "setting": "[12]; 500 g ai/ha", "result": 50},
      {"measurement": "crop damage rating SOY", "setting": "[13]; 125 g ai/ha", "result": 0},
      {"measurement": "crop damage rating SOY", "setting": "[13]; 500 g ai/ha", "result": 10},
      {"measurement": "AMBEL phytotoxicity rating (0-100)", "setting": "[14]; 63 g al/ha", "result": 15},
      {"measurement": "AMBEL phytotoxicity rating (0-100)", "setting": "[14]; 500 g al/ha", "result": 20},
      {"measurement": "SORHA phytotoxicity rating (0-100)", "setting": "[15]; 63 g al/ha", "result": 0},
      {"measurement": "SORHA phytotoxicity rating (0-100)", "setting": "[15]; 500 g al/ha", "result": 20},
      {"measurement": "ECHCG phytotoxicity rating (0-100)", "setting": "[16]; 63 g al/ha", "result": 0},
      {"measurement": "ECHCG phytotoxicity rating (0-100)", "setting": "[16]; 500 g al/ha", "result": 30},
      {"measurement": "SETVI phytotoxicity rating (0-100)", "setting": "[17]; 63 g al/ha", "result": 20},
      {"measurement": "SETVI phytotoxicity rating (0-100)", "setting": "[17]; 500 g al/ha", "result": 50},
      {"measurement": "IPOHE phytotoxicity rating (0-100)", "setting": "[18]; 63 g al/ha", "result": 95},
      {"measurement": "IPOHE phytotoxicity rating (0-100)", "setting": "[18]; 500 g al/ha", "result": 95},
      {"measurement": "CHEAL phytotoxicity rating (0-100)", "setting": "[19]; 63 g al/ha", "result": 80},
      {"measurement": "CHEAL phytotoxicity rating (0-100)", "setting": "[19]; 500 g al/ha", "result": 100},
      {"measurement": "DIGSA phytotoxicity rating (0-100)", "setting": "[20]; 63 g al/ha", "result": 0},
      {"measurement": "DIGSA phytotoxicity rating (0-100)", "setting": "[20]; 500 g al/ha", "result": 0},
      {"measurement": "AMARE phytotoxicity rating (0-100)", "setting": "[21]; 63 g al/ha", "result": 70},
      {"measurement": "AMARE phytotoxicity rating (0-100)", "setting": "[21]; 500 g al/ha", "result": 100},
      {"measurement": "CASOB phytotoxicity rating (0-100)", "setting": "[22]; 63 g al/ha", "result": 0},
      {"measurement": "CASOB phytotoxicity rating (0-100)", "setting": "[22]; 500 g al/ha", "result": 30},
      {"measurement": "ABUTH phytotoxicity rating (0-100)", "setting": "[23]; 63 g al/ha", "result": 100},
      {"measurement": "ABUTH phytotoxicity rating (0-100)", "setting": "[23]; 500 g al/ha", "result": 100},
      {"measurement": "CORN crop damage rating (0-100)", "setting": "[24]; 63 g al/ha", "result": 10},
      {"measurement": "CORN crop damage rating (0-100)", "setting": "[24]; 500 g al/ha", "result": 20},
      {"measurement": "RICE crop damage rating (0-100)", "setting": "[25]; 63 g al/ha", "result": 30},
      {"measurement": "RICE crop damage rating (0-100)", "setting": "[25]; 500 g al/ha", "result": 40},
      {"measurement": "SOY crop damage rating (0-100)", "setting": "[26]; 63 g al/ha", "result": 40},
      {"measurement": "SOY crop damage rating (0-100)", "setting": "[26]; 500 g al/ha", "result": 60}
    ]}
  ]
}
